# Values of other authors, collected in paper PMC5571359, “Screening the Medicines for Malaria Venture Pathogen Box across Multiple Pathogens Reclassifies Starting Points for Open-Source Drug Discovery” (Antimicrobial Agents and Chemotherapy, 2017).
# Like-named read-outs stand apart in the source and are kept apart here.
# Assays:
# P. falciparum ABS = conditions: cited from earlier work; for EC50: ChEMBL Data; for IC50: Pf 3D7, ref Pathogen Box supporting information, read-out: Pf 3D7 Pbox IC50
# HepG2 = conditions: cited from earlier work
# [1] = NITD, read-out: NITD (ref 94) EC50
# [2] = TCMDC, read-out: TCMDC (ref 93) EX50
SMILES,EC50 (P. falciparum ABS; [1]) [nM],IC50 (P. falciparum ABS) [nM],EC50 (P. falciparum ABS; [2]) [nM],further results
O=S(=O)(c1ccc(Cl)cc1)N1CCN(C(=S)NCc2ccco2)CC1 [MMV000858],970,1200,,
COc1cccc2c(C)nc(N=C(N)N)nc12 [MMV000907],290,1060,,
CCCS(=O)(=O)N1CCC(CO)(Cc2ccccc2C(F)(F)F)CC1 [MMV001059],1250,1090,890,"EC50 (P. falciparum ABS; St Jude, read-out: St JUDE (ref 95) EC50): 3370 nM"
COC(=O)C1=C(C)NC(C)=C(C(=O)OC(C)C)C1c1cccc2nonc12 (stereo not drawn) [MMV001493],,,,HepG2 PBox CC20 μMc (HepG2): 66000 nM
CNCCC(Oc1ccc(C(F)(F)F)cc1)c1ccccc1 (stereo not drawn) [MMV001561],,,,"HepG2 PBox CC20 (HepG2; HepG2, ref PBox supporting information): 9000 nM"
Oc1c(I)cc(I)c2cccnc12 [MMV002817],,,,HepG2 PBox CC20 μMc (HepG2; ref Pbox supporting information): 2500 nM
Cc1ccc2[nH]c3c(NCCN(C)C)ncnc3c2c1 [MMV006372],170,790,870,
COc1cc2ncnc(NC3CCN(Cc4ccccc4)CC3)c2cc1OC [MMV006741],400,620,,
Cc1cc(Cl)c(S(=O)(=O)N2CCCC2)cc1OCC(=O)NC1CCCCC1 [MMV006833],100,300,,
Cc1cc(NC(=O)c2ccc(S(=O)(=O)N(Cc3ccccc3)C(C)C)cc2)no1 [MMV007133],2690,980,850,
COc1cc(OC)cc(C(=O)NCC2Cc3cc(Cl)cc(-c4ccncc4)c3O2)c1 (stereo not drawn) [MMV007471],370,580,,
Cc1cc(C)n(-c2ccc(NC(=O)C3CCN(Cc4cnc(C)s4)CC3)cc2)n1 [MMV007625],810,780,,
O=C(NC1CC1)c1ccc(CSCc2ccccc2Cl)o1 [MMV007803],500,1420,,
COc1ccc(CCN2CCC(NCc3cccc(N(C)C)c3)CC2)cc1 [MMV011511],810,1200,1320,
FC(F)(F)c1cnc(Sc2nnc(-c3ccncc3)o2)c(Cl)c1 [MMV011765],1870,270,270,
Cc1nc2ccccn2c1C(=O)NCc1ccc(Cl)cc1 [MMV012074],,,,"CC50 (HepG2; read-out: HepG2 PBox CC50 µM, HepG2 cytotoxicity, ref PBox supporting information): > 100 µM"
Cc1cc(Nc2ccncc2)n2nc(C)c(-c3ccccc3Cl)c2n1 [MMV016136],,630,690,
COc1ccc(C2CC(c3cccs3)=NN2C(=O)c2ccco2)cc1OC (stereo not drawn) [MMV019234],,300,170,
CCC(NC(=O)c1ccccc1NC(=O)c1ccc(C)cc1)C(=O)OC (stereo not drawn) [MMV019551],,160,760,

SMILES,EC50 (P. falciparum ABS; [1]) [nM],IC50 (P. falciparum ABS) [nM],EC50 (P. falciparum ABS; [2]) [nM],further results
CCOc1ccccc1C(=O)Nc1cccc(-c2nc3ncccn3c2C)c1 [MMV019790],,1270,850,
Cc1ccc2cc(C3NC(=O)c4ccccc4N3)c(Cl)nc2c1 (stereo not drawn) [MMV019807],,1660,950,
O=C(Nc1ccnc(-c2cccnc2)n1)c1cc(C(F)(F)F)cc(C(F)(F)F)c1 [MMV019838],,1050,830,
Cc1nn(C)cc1C(C)Nc1nncc(-c2ccc(C(F)(F)F)cc2)n1 (stereo not drawn) [MMV019993],,120,250,
CNC(=O)c1cc(S(=O)(=O)N2CCN(c3ccccn3)CC2)cs1 [MMV020136],,1110,670,
CC(C)NCC(=O)Nc1cccc(C(=O)Nc2cccc(C(F)(F)F)c2)c1 [MMV020165],,350,270,
CC(C(=O)N1CCCC1)N1CCN(S(=O)(=O)c2ccc(C(C)(C)C)cc2)CC1 (stereo not drawn) [MMV020291],,900,640,
COc1ccccc1C(C)NCC(=O)Nc1cc(C(F)(F)F)ccc1Cl (stereo not drawn) [MMV020321],,1380,780,
CC1CCCN(C(=O)C(C)Nc2cc(Cl)ccc2N2CCOCC2)C1 (stereo not drawn) [MMV020388],,520,320,
CC(C)C(C(=O)Nc1ccc(S(=O)(=O)N(C)C)cc1)c1ccc(Cl)cc1 (stereo not drawn) [MMV020391],,930,940,
COc1ccccc1CNC(=O)c1cc(C2CC2)nc2c1cnn2C(C)C [MMV020517],,940,1020,
Cc1cc2ccccc2n1CC(=O)N1CC(C(=O)N2CCCCC2)Oc2ccccc21 (stereo not drawn) [MMV020520],,1080,900,
Cc1noc(C)c1C(=O)N1CCCC(c2[nH]c3c(C)cccc3c2-c2ccncc2)C1 (stereo not drawn) [MMV020623],,940,840,
COc1ccc(-c2cncc3ccc(C(=O)NCCCn4ccnc4)nc23)cc1 [MMV020670],,1080,750,
COc1ccc(Cl)cc1NC(=O)CN(C)C(=O)c1cnn(-c2ccccc2)n1 [MMV020710],,240,230,
CC(C)(C)c1cc(C(=O)Nc2cccnc2)cc(C(=O)Nc2cccnc2)c1 [MMV020982],,900,760,
Cc1cc(NCC(C)C)c2n[nH]c(-c3ccccc3)c2n1 [MMV021375],,1400,740,
CCN(CC)CCCN1CCN(C(=O)c2cccc(-c3noc(C(F)(F)F)n3)c2)CC1 [MMV022236],,190,150,
c1ccc2c(c1)CN(CC1CC1)CC1(CCN(Cc3c[nH]c4cnccc34)CC1)O2 [MMV023183],,610,900,
